The source of these data is DBAASP.

Common to all, as to assay: ≥ marks a high value that may be exact or a test limit, other limits are often not marked, values filed in µg/mL are converted to µM
Assay [1] relates to Bacillus megaterium ATCC 10778.
Assay [2] deals with Bacillus subtilis ATCC 6633.
Assay [3] relates to Candida albicans MDM8.
For assay [4], the system named is Candida tropicalis IOC 4560.
Assay [5] relates to Enterobacter cloacae beta-12.
The subject of assay [6] is Escherichia coli SBS 363.
Assay [7] relates to Micrococcus luteus A270.
In assay [8] the test system is Pseudomonas aeruginosa ATCC 27853.
The subject of assay [9] is Serratia marcescens ATCC 4112.
Assay [10] has as its system Staphylococcus aureus ATCC 29213.
Assay [11] deals with Bacillus subtilis.
The subject of assay [12] is Enterococcus faecalis E1478F.
Assay [13] relates to Staphylococcus aureus RN4220.
Assay [14] deals with Staphylococcus aureus.
The test system of assay [15] is Staphylococcus sciuri P254.
Assay [16] has as its system Acinetobacter baumannii.
In assay [17] the test system is Bacillus cereus CGMCC 1.932.
Assay [18] relates to Bacillus subtilis CMCC 63501.
Assay [19] concerns Enterococcus faecalis ATCC 29212.
Assay [20] relates to Escherichia coli 078.
Assay [21] concerns Escherichia coli K88.
Assay [22] relates to Escherichia coli K99.
Assay [23] relates to Escherichia coli UB1005.
Assay [24] relates to Listeria monocytogenes CGMCC 1.1075.
Assay [25] deals with Pseudomonas aeruginosa PAO1.
Assay [26] deals with Salmonella enterica subsp. enterica serovar Pullorum ATCC 7913.
In assay [27] the test system is Salmonella enterica subsp. enterica serovar Typhimurium ATCC 14028.
In assay [28] the test system is Salmonella typhimurium ATCC 7731.
In assay [29] the test system is Staphylococcus aureus ATCC 25923.
Assay [30] deals with Staphylococcus aureus ATCC 43300.
The test system of assay [31] is Staphylococcus epidermidis ATCC 12228.
Assay [32] relates to Bacillus subtilis IFO 3037.
In assay [33] the test system is Escherichia coli IFO 14237.
Assay [34] deals with Staphylococcus aureus IFO 12732.
For assay [35], the system named is Salmonella enterica subsp. enterica serovar Pullorum C79-13.
Assay [36] relates to Salmonella enterica subsp. enterica serovar Typhi CMCC 50071.
Assay [37] deals with Salmonella enterica subsp. enterica serovar Typhimurium C77-31.
Assay [38] relates to Bacillus cereus ATCC 10876.
Assay [39] concerns Escherichia coli ATCC 25922.
Assay [40] relates to Staphylococcus aureus ATCC 6538.
The subject of assay [41] is Streptococcus agalactiae ATCC 27956.
Assay [42] deals with Streptococcus dysgalactiae subsp. dysgalactiae ATCC 27957.
The test system of assay [43] is Streptococcus equi subsp. zooepidemicus ATCC 43079.

SMILES strings stand for the structures. Converted amounts (≈) assume the structure as drawn.

The term MIC denotes the lowest concentration found to suppress growth. A lower MIC goes with inhibition by little substance. As for `CC(C)C[C@H](NC(=O)[C@H](C)NC(=O)CNC(=O)[C@H](CC(C)C)NC(=O)[C@@H](N)Cc1ccccc1)C(=O)N[C@@H](Cc1c[nH]c2ccccc12)C(=O)N[C@@H](CCCN=C(N)N)C(=O)N[C@H](C(=O)N[C@@H](C)C(=O)N[C@@H](CCCCN)C(=O)N[C@@H](CO)C(=O)N[C@H](C(=O)N[C@@H](Cc1ccccc1)C(N)=O)C(C)C)C(C)C` [FLGALWRVAKSVF], the MIC in assay [1] was determined as 0.8 µM (≈ 1.19 µg/mL); in assay [2] it was 0.8 µM (≈ 1.19 µg/mL); in assay [3] it was 1.6 µM (≈ 2.39 µg/mL); in assay [4] it was 1.6 µM (≈ 2.39 µg/mL); in assay [5], 6.3 µM (≈ 9.4 µg/mL); in [6], 1.6 µM (≈ 2.39 µg/mL). Further, the MIC in [7] is 1.6 µM (≈ 2.39 µg/mL); in [8] it was 6.3 µM (≈ 9.4 µg/mL); in assay [9] it was 0.4 µM (≈ 0.597 µg/mL); in [10], 1.6 µM (≈ 2.39 µg/mL).
As to `CC[C@H](C)[C@H](NC(=O)[C@H](CC(C)C)NC(=O)[C@@H]1CCCN1C(=O)[C@H](CC(C)C)NC(=O)[C@@H](N)Cc1ccccc1)C(=O)NCC(=O)NCC(=O)N[C@@H](CC(C)C)C(=O)N[C@@H](CC(C)C)C(=O)N[C@@H](CO)C(=O)N[C@@H](CCCCN)C(=O)N[C@@H](CC(C)C)C(=O)N[C@@H](CC(C)C)C(N)=O` [FLPLIGGLLSKLL], the MIC in [11] is 2.83 µM (≈ 3.91 µg/mL); in assay [12], 2.83 µM (≈ 3.91 µg/mL); in assay [13], at least 45.2 µM; in assay [14] it was 45.2 µM (≈ 62.5 µg/mL); in assay [15], at least 45.2 µM.
Regarding `CC(C)[C@H](NC(=O)[C@H](CCCN=C(N)N)NC(=O)[C@H](Cc1c[nH]c2ccccc12)NC(=O)[C@H](CCCN=C(N)N)NC(=O)[C@H](Cc1c[nH]c2ccccc12)NC(=O)[C@H](Cc1c[nH]c2ccccc12)NC(=O)[C@H](Cc1c[nH]c2ccccc12)NC(=O)[C@H](CCCN=C(N)N)NC(=O)[C@H](Cc1c[nH]c2ccccc12)NC(=O)[C@H](CCCN=C(N)N)NC(=O)CN)C(N)=O` [GRWRWWWRWRV], the MIC in assay [16] came to 1 µM (≈ 1.73 µg/mL); in assay [17], 8 µM (≈ 13.8 µg/mL); in assay [18], 4 µM (≈ 6.92 µg/mL); in assay [19], 2 µM (≈ 3.46 µg/mL); in [20], 4 µM (≈ 6.92 µg/mL); in [21], 1 µM (≈ 1.73 µg/mL). Also, the MIC amounted to 2 µM (≈ 3.46 µg/mL) in assay [22]; 2 µM (≈ 3.46 µg/mL) in assay [23]; 1 µM (≈ 1.73 µg/mL) in assay [24]; 8 µM (≈ 13.8 µg/mL) in [8]; 4 µM (≈ 6.92 µg/mL) in assay [25]; 4 µM (≈ 6.92 µg/mL) in assay [26]. Also, the MIC worked out at 8 µM (≈ 13.8 µg/mL) in [27]; 8 µM (≈ 13.8 µg/mL) in assay [28]; 4 µM (≈ 6.92 µg/mL) in [29]; 4 µM (≈ 6.92 µg/mL) in assay [30]; 2 µM (≈ 3.46 µg/mL) in [31].
For the compound `CC[C@H](C)[C@H](N)C(=O)N[C@H](C(=O)NCC(=O)N[C@@H](CC(C)C)C(=O)N[C@H](C(=O)N[C@@H](CO)C(=O)N[C@@H](CCCCN)C(=O)NCC(=O)N[C@H](C(=O)N[C@H]1CSSC[C@@H](C(=O)N[C@@H](CCCCN)C(=O)N[C@@H](CCCCN)C(=O)N[C@H](C(=O)N[C@@H](CC(C)C)C(=O)N[C@@H](CCCCN)C(=O)N[C@@H](CCC(N)=O)C(N)=O)C(C)C)NC(=O)[C@H](C(C)C)NC(=O)[C@H]([C@@H](C)O)NC(=O)[C@H](CCCCN)NC(=O)[C@H](C(C)C)NC(=O)[C@H](CC(C)C)NC(=O)[C@H](C(C)C)NC1=O)[C@@H](C)O)C(C)C)[C@@H](C)CC` [IIGLVSKGTCVLVKTVCKKVLKQ], the MIC is at least 50 µM in [32], 25 µM (≈ 61.4 µg/mL) in assay [33] and 25 µM (≈ 61.4 µg/mL) in [34].
Take `NCCCC[C@H](NC(=O)[C@H](Cc1c[nH]c2ccccc12)NC(=O)[C@H](CCCN=C(N)N)NC(=O)[C@H](CCCN=C(N)N)NC(=O)[C@H](Cc1c[nH]c2ccccc12)NC(=O)[C@H](CCC(N)=O)NC(=O)[C@H](Cc1c[nH]c2ccccc12)NC(=O)[C@H](CCCN=C(N)N)NC(=O)[C@H](CCCN=C(N)N)NC(=O)[C@H](Cc1c[nH]c2ccccc12)NC(=O)[C@@H](N)CCCCN)C(N)=O` [KWRRWQWRRWK]: the MIC is 8 µM (≈ 14.2 µg/mL) in assay [23]; 16 µM (≈ 28.3 µg/mL) in assay [35]; at least 128 µM in assay [36]; 32 µM (≈ 56.7 µg/mL) in [27]; 16 µM (≈ 28.3 µg/mL) in assay [37]; 32 µM (≈ 56.7 µg/mL) in [29]. In addition, the MIC in [10] and in assay [31] was 8 µM (≈ 14.2 µg/mL) throughout.
Regarding `CC[C@H](C)[C@H](NC(=O)CNC(=O)[C@H](CCCN=C(N)N)NC(=O)[C@H](CCCCN)NC(=O)[C@H](CO)NC(=O)[C@H](CCCN=C(N)N)NC(=O)[C@H](CCCN=C(N)N)NC(=O)[C@@H](N)C(C)C)C(=O)N[C@@H](CCCCN)C(=O)N[C@H](C(=O)N1CCC[C@H]1C(=O)N[C@@H](CO)C(=O)N[C@@H](Cc1ccccc1)C(=O)N[C@H](C(=O)N[C@@H](CCCCN)C(=O)N[C@@H](CCCCN)C(=O)N[C@H](C(=O)N[C@@H](CC(C)C)C(=O)N[C@@H](CCCCN)C(=O)N[C@@H](CC(=O)O)C(=O)N[C@H](C(=O)N[C@H](C(=O)N[C@@H](CO)C(=O)N[C@@H](CCC(=O)O)C(=O)N[C@@H](CO)C(=O)N[C@H](C(=O)N[C@@H](CO)C(=O)O)[C@@H](C)CC)C(C)C)C(C)C)C(C)C)C(C)C)C(C)C` [VRRSKRGIKVPSFVKKVLKDVVSESIS], the MIC is 10.5 µM (≈ 32 µg/mL) in assay [38]; over 10.5 µM in [19]; 1.64 µM (≈ 5 µg/mL) in [39]; over 10.5 µM in [8]; over 10.5 µM in assay [27]; over 10.5 µM in assay [40]. Besides, the MIC in assay [41], in assay [42] and in assay [43] was 13.2 µM (≈ 40.2 µg/mL) throughout.
